# Experimental data taken from ChEMBL document CHEMBL6074634, “Design, synthesis, and evaluation of novel oxyacanthine derivatives for anti-SARS-CoV-2 activity” (Bioorg Med Chem Lett, 2024).
# The source made the active and inactive calls. The calls are words filed in the database; no cut-off is given here.
# Tests used:
# [1] = Cytotoxicity against African green monkey Vero E6 cells assessed as cell viability by CCK-8 assay; type: toxicity, cell-based, Vero C1008; settings: African green monkey (Chlorocebus sabaeus)
# [2] = Half life in male ICR mouse at 10 mg/kg, po measured upto 24 hrs by LC-MS/MS analysis; type: ADME, organism-based; settings: in vivo
# [3] = Cmax in male ICR mouse at 10 mg/kg, po measured upto 24 hrs by LC-MS/MS analysis; type: ADME, organism-based; settings: in vivo
# [4] = Tmax in male ICR mouse at 10 mg/kg, po measured upto 24 hrs by LC-MS/MS analysis; type: ADME, organism-based; settings: in vivo
# [5] = Half life in male ICR mouse at 2.5 mg/kg, iv measured upto 24 hrs by LC-MS/MS analysis; type: ADME, organism-based; settings: in vivo
# [6] = tested on: Severe acute respiratory syndrome coronavirus 2; test: Inhibition of SARS CoV-2 envelope (2-E) channel at 100 uM
# [7] = AUC (0 to 24 hrs) in male ICR mouse at 2.5 mg/kg, iv measured upto 24 hrs by LC-MS/MS analysis; type: ADME, organism-based; settings: in vivo
# [8] = Oral bioavailability in male ICR mouse at 10 mg/kg measured upto 24 hrs by LC-MS/MS analysis; type: ADME, organism-based; settings: in vivo
# [9] = AUC (0 to 24 hrs) in male ICR mouse at 10 mg/kg, po measured upto 24 hrs by LC-MS/MS analysis; type: ADME, organism-based; settings: in vivo
# [10] = Inhibition of SARS CoV-2 envelope (2-E) channel; set-up: species or system Severe acute respiratory syndrome coronavirus 2
# [11] = Toxicity in mouse assessed as body weight loss at 10 to 200 mg/kg administered for 10 days; type: organism-based; settings: in vivo, 240 h, dose 10-200 mg/kg, time 10 day
# [12] = Toxicity in mouse assessed as animal death at 10 to 200 mg/kg administered for 10 days; type: organism-based; settings: in vivo, 240 h, dose 10-200 mg/kg, time 10 day
smiles,measurement,setting,value
COc1cc2c3cc1Oc1c(OC)c(OC)cc4c1[C@H](Cc1ccc(cc1)Oc1cc(ccc1C)C[C@H]3N(C)CC2)N(C)CC4,IC50,[1],10.3 µM
COc1cc2c3cc1Oc1c(OC)c(OC)cc4c1[C@H](Cc1ccc(cc1)Oc1cc(ccc1C(=O)NC(C)C)C[C@H]3N(C)CC2)N(C)CC4,IC50,[1],26.4 µM
COc1cc2c3cc1Oc1c(OC)c(OC)cc4c1[C@H](Cc1ccc(cc1)Oc1cc(ccc1C(=O)N1CCCCC1)C[C@H]3N(C)CC2)N(C)CC4,IC50,[1],24.6 µM
COc1cc2c3cc1Oc1c(OC)c(OC)cc4c1[C@H](Cc1ccc(cc1)Oc1cc(ccc1C(=O)Nc1ccc(C(F)(F)F)cc1)C[C@H]3N(C)CC2)N(C)CC4,IC50,[1],10.5 µM
COc1cc2c3cc1Oc1c(OC)c(OC)cc4c1[C@H](Cc1ccc(cc1)Oc1cc(ccc1C(=O)NC1CCC1)C[C@H]3N(C)CC2)N(C)CC4,IC50,[1],33.9 µM
COc1cc2c3cc1Oc1c(OC)c(OC)cc4c1[C@H](Cc1ccc(cc1)Oc1cc(cc([N+](=O)[O-])c1)C[C@H]3N(C)CC2)N(C)CC4,IC50,[1],24.3 µM
COc1cc2c3cc1Oc1c(OC)c(OC)cc4c1[C@H](Cc1ccc(cc1)Oc1cc(ccc1C(C)=O)C[C@H]3N(C)CC2)N(C)CC4,IC50,[1],29.4 µM
COc1cc2c3cc1Oc1c(OC)c(OC)cc4c1[C@H](Cc1ccc(cc1)Oc1cc(ccc1C(=O)NC15CC6CC(CC(C6)C1)C5)C[C@H]3N(C)CC2)N(C)CC4,IC50,[1],4.9 µM
COc1cc2c3cc1Oc1c(OC)c(OC)cc4c1[C@H](Cc1ccc(cc1)Oc1cc(ccc1C(=O)Nc1ccccc1)C[C@H]3N(C)CC2)N(C)CC4,IC50,[1],6.88 µM
COc1cc2c3cc1Oc1c(OC)c(OC)cc4c1[C@H](Cc1ccc(cc1)Oc1cccc(c1)C[C@H]3N(C)CC2)N(C)CC4,IC50,[1],17.1 µM
COc1cc2c3cc1Oc1c(OC)c(OC)cc4c1[C@H](Cc1ccc(cc1)Oc1cc(ccc1C(=O)NC1CCCC1)C[C@H]3N(C)CC2)N(C)CC4,IC50,[1],22.5 µM
COc1cc2c3cc1Oc1c(OC)c(OC)cc4c1[C@H](Cc1ccc(cc1)Oc1cc(ccc1C(=O)NC1CC1)C[C@H]3N(C)CC2)N(C)CC4,half-life,[2],961 min
same,Cmax,[3],313 ng/mL
same,Tmax,[4],1 h
same,half-life,[5],1270 min
same,inhibition,[6],inactive
same,AUC(0-t) at 24 h,[7],1840 ng·h/mL
same,bioavailability,[8],68.1%
same,AUC(0-t) at 24 h,[9],5000 ng·h/mL
same,IC50,[1],62.3 µM
COc1cc2c3cc1Oc1c(OC)c(OC)cc4c1[C@H](Cc1ccc(cc1)Oc1cc(ccc1O)C[C@H]3N(C)CC2)N(C)CC4 [AROMOLINE],half-life,[2],383 min
same,Cmax,[3],260 ng/mL
same,Tmax,[4],0.33 h
same,half-life,[5],792 min
same,AUC(0-t) at 24 h,[7],1300 ng·h/mL
same,bioavailability,[8],34.5%
same,AUC(0-t) at 24 h,[9],1790 ng·h/mL
same,IC50,[1],29.9 µM
COc1cc2c3cc1Oc1c(OC)c(OC)cc4c1[C@H](Cc1ccc(cc1)Oc1cc(ccc1C1CC1)C[C@H]3N(C)CC2)N(C)CC4,IC50,[1],10.9 µM
COc1cc2c3cc1Oc1c(OC)c(OC)cc4c1[C@H](Cc1ccc(cc1)Oc1cc(ccc1C(N)=O)C[C@H]3N(C)CC2)N(C)CC4,IC50,[10],780 nM
same,half-life,[2],752 min
same,Cmax,[3],854 ng/mL
same,Tmax,[4],1.75 h
same,half-life,[5],1030 min
same,AUC(0-t) at 24 h,[7],4120 ng·h/mL
same,bioavailability,[8],77.4%
same,AUC(0-t) at 24 h,[9],12800 ng·h/mL
same,IC50,[1],63.2 µM
same,Activity,[11],Non-toxic
same,Activity,[12],Non-toxic
COC(=O)c1ccc2cc1Oc1ccc(cc1)C[C@H]1c3c(cc(OC)c(OC)c3Oc3cc4c(cc3OC)CCN(C)[C@@H]4C2)CCN1C,IC50,[1],29.5 µM
COc1cc2c3cc1Oc1c(OC)c(OC)cc4c1[C@H](Cc1ccc(cc1)OC1C=C(Cc5[nH]c(=O)oc51)C[C@H]3N(C)CC2)N(C)CC4 (some centres undefined),IC50,[1],14.8 µM
COc1ccc(NC(=O)c2ccc3cc2Oc2ccc(cc2)C[C@H]2c4c(cc(OC)c(OC)c4Oc4cc5c(cc4OC)CCN(C)[C@@H]5C3)CCN2C)cc1,IC50,[1],10.6 µM
CCCCCNC(=O)c1ccc2cc1Oc1ccc(cc1)C[C@H]1c3c(cc(OC)c(OC)c3Oc3cc4c(cc3OC)CCN(C)[C@@H]4C2)CCN1C,IC50,[1],22.5 µM
C=CC(=O)Nc1ccc2cc1Oc1ccc(cc1)C[C@H]1c3c(cc(OC)c(OC)c3Oc3cc4c(cc3OC)CCN(C)[C@@H]4C2)CCN1C,IC50,[1],31.1 µM
CNC(=O)c1ccc2cc1Oc1ccc(cc1)C[C@H]1c3c(cc(OC)c(OC)c3Oc3cc4c(cc3OC)CCN(C)[C@@H]4C2)CCN1C,IC50,[1],66.7 µM
COc1cc2c3cc1Oc1c(OC)c(OC)cc4c1[C@H](Cc1ccc(cc1)Oc1cc(ccc1C(=O)NCCOCCO)C[C@H]3N(C)CC2)N(C)CC4,IC50,[1],123 µM
COc1cc2c3cc1Oc1c(OC)c(OC)cc4c1[C@H](Cc1ccc(cc1)Oc1cc(ccc1C(=O)Nc1cccnc1)C[C@H]3N(C)CC2)N(C)CC4,IC50,[1],26.4 µM
C=C(C)c1ccc2cc1Oc1ccc(cc1)C[C@H]1c3c(cc(OC)c(OC)c3Oc3cc4c(cc3OC)CCN(C)[C@@H]4C2)CCN1C,IC50,[1],6.13 µM
